Source: patent publication US20240261422A1, “ANTHRACYCLINE ANTIBODY CONJUGATES” (SEAGEN INC., priority 2021, published 2024)
pIC50: −log10 of the molar value. Like-named read-outs stand apart in the source and are kept apart here.

How the values were obtained:
L428, MDR + HL = assay: In vitro growth inhibition (CellTiter-Glo, 96 h), L428; type: cell-based; settings: cAC10 (anti-CD30) ADCs, average DAR 4
Procedure: (§1) Cell culture of cell lines as listed in Table 2-4 in log-phase growth were seeded in 96-well plates and grown for 24 h in cell culture media containing 150 μL RPMI 1640 supplemented with 20% FBS (see Mol. Cancer Ther., 2016, 15(5), 938-945 and Mol. Cancer Ther., 2018, 17(8), 1752-1760). Serial dilutions of free drugs or antibody-drug conjugates (final concentration between 0.004 nM and 1 μM) in cell culture media were prepared at 4× working concentrations; 50 μL of each dilution was added to the 96-well plates. Following addition of the drug or ADC, the cells were incubated with test articles (free drugs or ADCs) for 4 d at 37° C. After 96 h, growth inhibition was assessed by CellTiter-Glo® (Promega, Madison, WI) and luminescence was measured on a plate reader (brand, model).
(§2) Anti-CD30 ADCs comprising cAC10 antibody conjugated to drug-linkers 24, 32, 29, 18, 14, and 48 with an average DAR of 4 were prepared for evaluation on a CD30-expressing lymphoma cell line panel. […] Anti-CD30 conjugates bearing the PNU linkers 24, 32, 29, 18, and 14 were active on L540cy, DEL, and Karpas299 lymphoma cell lines, and conjugate 48 was active on L540cy and DEL cell lines, with IC50s ranging from 0.2-4 ng/mL.

786-O, MDR + RCC = assay: In vitro growth inhibition (CellTiter-Glo, 96 h), 786-O; type: cell-based; settings: for IC50 (ng/mL) 786-O, MDR + RCC: cOKT9 ADCs, average DAR 8, 96 h; for IC50: Homo sapiens, read-out: IC50 (nM) 786-O, MDR + RCC
Procedure: as §1
(§3) Cells were treated for 96 hours with anthracycline analogues listed in Table 2, and then assessed for viability as described in the procedures as described above. […] ND denotes value not determined with that assay for the specified compound.
(§4) ADCs were prepared by full reduction of interchain disulfides to reveal 8-conjugatable cysteines/antibody, and subsequent alkylation with the maleimide-containing drug-linkers (Compounds 14, 18, 21, 24, 29, 32, 33, 34, and 48) according to the procedures described in Mol. Cancer Ther. 2018, 17(8). 1752-1760. Conjugates of antibody cOKT9 were prepared with anthracycline linkers. Cancer cell lines were treated with cOKT9 ADCs (average DAR of 8:1) for 96 h and then assessed for viability. […] ND denotes value not determined with that assay for the specified compound.

HL60, AML = assay: In vitro growth inhibition (CellTiter-Glo, 96 h), HL60; type: cell-based; settings: for IC50 (ng/mL) HL60, AML: cOKT9 ADCs, average DAR 8, 96 h; for IC50: Homo sapiens, read-out: IC50 (nM) HL60, AML
Procedure: as §1, §3, §4

BxPC3, PancCa = assay: In vitro growth inhibition (CellTiter-Glo, 96 h), BxPC3; type: cell-based; settings: for IC50 (ng/mL) BxPC3, PancCa: cOKT9 ADCs, average DAR 8, 96 h; for IC50: Homo sapiens, read-out: IC50 (nM) BxPC3, PancCa
Procedure: as §1, §3, §4

HL60/RV, MDR + AML = assay: In vitro growth inhibition (CellTiter-Glo, 96 h), HL60/RV; type: cell-based; settings: for activity of cOKT9 conjugates on multidrug resistant HL60/RV: cOKT9 ADCs DAR 8, result in words; for IC50 (ng/mL) HL60/RV, MDR + AML: cOKT9 ADCs, average DAR 8, 96 h; for IC50: Homo sapiens, read-out: IC50 (nM) HL60/RV, MDR + AML
Procedure: as §1, §3, §4

L540cy, HL = assay: In vitro growth inhibition (CellTiter-Glo, 96 h), L540cy; type: cell-based; settings: for IC50: L540cy, 96 h, read-out: IC50 (nM) L540cy, HL
Procedure: as §1, §3, §4, §2

DEL, ALCL = assay: In vitro growth inhibition (CellTiter-Glo, 96 h), DEL; type: cell-based; settings: cAC10 (anti-CD30) ADCs, average DAR 4
Procedure: as §1, §2

[1] = test system: L540cy, 786-O, BxPC3, HL60, HL60/RV; settings: 24 h
Karpas299, ALCL = assay: In vitro growth inhibition (CellTiter-Glo, 96 h), Karpas299; type: cell-based; settings: cAC10 (anti-CD30) ADCs, average DAR 4
Procedure: as §1, §2

Ramos, CD30 − NHL = assay: In vitro growth inhibition (CellTiter-Glo, 96 h), Ramos; type: cell-based; settings: cAC10 (anti-CD30) ADCs, average DAR 4
Procedure: as §1, §2

[2] = test system: L540cy, 786-O, BxPC3, HL60, HL60/RV; assay: cells; settings: 96 h, read-out: IC50 values on the cancer lines tested
[3] = cAC10 (anti-CD30) ADCs, average DAR 4
[4] = cOKT9 ADCs, average DAR 8, 96 h
[5] = 786-0, anthracycline free drugs, 96 h
[6] = HL-60, anthracycline free drugs, 96 h
[7] = BXPC-3, anthracycline free drugs, 96 h

| Compound | IC50 (ng/mL) 786-O, MDR + RCC (786-O, MDR + RCC) | IC50 (ng/mL) BxPC3, PancCa (BxPC3, PancCa) | IC50 (ng/mL) L540cy, HL (L540cy, HL; [3]) | IC50 (ng/mL) L540cy, HL (L540cy, HL; [4]) | IC50 (ng/mL) DEL, ALCL (DEL, ALCL) | IC50s of cOKT9 conjugates [1] [ng/mL] | IC50 (786-O, MDR + RCC; [5]) [nM] | IC50 (BxPC3, PancCa; [7]) [nM] | IC50 (L540cy, HL; anthracycline free drugs) [nM] | pIC50 [2] | also measured |
| --- | --- | --- | --- | --- | --- | --- | --- | --- | --- | --- | --- |
| COc1cccc2c1C(=O)c1c(O)c3c(c(O)c1C2=O)C[C@@](O)(C(=O)NCCNC(=O)OCc1ccc(NC(=O)[C@H](C)NC(=O)[C@@H](NC(=O)CCN2C(=O)C=CC2=O)C(C)C)cc1)C[C@@H]3O[C@H]1C[C@H]2[C@H](O[C@@H]3[C@@H](OC)OCCN32)[C@H](C)O1 [Compound 24, 4-((S)-2-((S)-2-(3-(2,5-dioxo-2,5-dihydro-1H-pyrrol-1-yl)propanamido)-3-methylbutanamido)propanamido)benzyl (2-((2S,4S)-2,5,12-trihydroxy-7-methoxy-4-(((1S,3R,4aS,9S,9aR,10aS)-9-methoxy-1-methyloctahydro-1H-pyrano[4′,3′:4,5]oxazolo[2,3-c][1,4]oxazin-3-yl)oxy)-6,11-dioxo-1,2,3,4,6,11-hexahydrotetracene-2-carboxamido)ethyl)carbamate] | B (10 ng/mL≤IC50<100 ng/mL) | A (IC50<10 ng/mL) | B (1 ng/mL≤IC50<10 ng/mL) | A (IC50<10 ng/mL) | A (IC50<1 ng/mL) | 1 to 150 |  |  |  |  | IC50 (ng/mL) L428, MDR + HL (L428, MDR + HL): E (IC50≥500 ng/mL); IC50 (ng/mL) HL60, AML (HL60, AML): B (10 ng/mL≤IC50<100 ng/mL); activity of cOKT9 conjugates on multidrug resistant HL60/RV (HL60/RV, MDR + AML): active; IC50 (ng/mL) HL60/RV, MDR + AML (HL60/RV, MDR + AML): B (10 ng/mL≤IC50<100 ng/mL); IC50 (ng/mL) Karpas299, ALCL (Karpas299, ALCL): B (1 ng/mL≤IC50<10 ng/mL); IC50 (ng/mL) Ramos, CD30 − NHL (Ramos, CD30 − NHL): D (100 ng/mL≤IC50<500 ng/mL) |
| COc1cccc2c1C(=O)c1c(O)c3c(c(O)c1C2=O)C[C@@](O)(C(=O)NCCNC(=O)CNC(=O)[C@H](C)NC(=O)[C@@H](NC(=O)CCN1C(=O)C=CC1=O)C(C)C)C[C@@H]3O[C@H]1C[C@H]2[C@H](O[C@@H]3[C@@H](OC)OCCN32)[C@H](C)O1 [Compound 48, (2S,4S)—N-((8S,11S)-15-(2,5-dioxo-2,5-dihydro-1H-pyrrol-1-yl)-11-isopropyl-8-methyl-4,7,10,13-tetraoxo-3,6,9,12-tetraazapentadecyl)-2,5,12-trihydroxy-7-methoxy-4-(((1S,3R,4aS,9S,9aR,10aS)-9-methoxy-1-methyloctahydro-1H-pyrano[4′,3′:4,5]oxazolo[2,3-c][1,4]oxazin-3-yl)oxy)-6,11-dioxo-1,2,3,4,6,11-hexahydrotetracene-2-carboxamide] | B (10 ng/mL≤IC50<100 ng/mL) | A (IC50<10 ng/mL) | A (IC50<1 ng/mL) | A (IC50<10 ng/mL) | A (IC50<1 ng/mL) | 1 to 150 |  |  |  |  |  |
| COc1cccc2c1C(=O)c1c(O)c3c(c(O)c1C2=O)C[C@@](O)(C(=O)O)C[C@@H]3O[C@H]1C[C@H](N)[C@H](O)[C@H](C)O1 [Compound 2, (2S,4S)-4-(((2R,4S,5S,6S)-4-amino-5-hydroxy-6-methyltetrahydro-2H-pyran-2-yl)oxy)-2,5,12-trihydroxy-7-methoxy-6,11-dioxo-1,2,3,4,6,11-hexahydrotetracene-2-carboxylic acid] |  |  |  |  |  |  | > 1000 | > 1000 | > 1000 | < 6.00 | IC50 (HL60, AML; [6]): > 1000 nM; IC50 (HL60/RV, MDR + AML; [6]): > 1000 nM |
| COc1cccc2c1C(=O)c1c(O)c3c(c(O)c1C2=O)C[C@@](O)(C(=O)CO)C[C@@H]3O[C@H]1C[C@H](N)[C@H](O)[C@H](C)O1 [Compound 1, Doxorubicin, reference compound] |  |  |  |  |  |  | 10 to 100 | 100 to 1000 | 10 to 100 | 6.41 to 7.89 | IC50 (HL60, AML; [6]): 10 to 100 nM; IC50 (HL60/RV, MDR + AML; [6]): 100 to 1000 nM |
| COc1cccc2c1C(=O)c1c(O)c3c(c(O)c1C2=O)C[C@@](O)(C(=O)O)C[C@@H]3O[C@H]1C[C@H]2[C@H](O[C@@H]3[C@@H](OC)OCCN32)[C@H](C)O1 [Compound 6, (2S,4S)-2,5,12-trihydroxy-7-methoxy-4-(((1S,3R,4aS,9S,9aR,10aS)-9-methoxy-1-methyloctahydro-1H-pyrano[4′,3′:4,5]oxazolo[2,3-c][1,4]oxazin-3-yl)oxy)-6,11-dioxo-1,2,3,4,6,11-hexahydrotetracene-2-carboxylic acid] |  |  |  |  |  |  | < 10 | 10 to 100 | < 10 | 7.72 to 8.30 | IC50 (HL60, AML; HL-60, 96 h): 10 to 100 nM; IC50 (HL60/RV, MDR + AML; HL-60, 96 h): 10 to 100 nM |
| COc1cccc2c1C(=O)c1c(O)c3c(c(O)c1C2=O)C[C@@](O)(C(=O)CO)C[C@@H]3O[C@H]1C[C@H](N2CCO[C@H](OC)C2)[C@H](O)[C@H](C)O1 [Compound 3, Nemorubicin, reference compound] |  |  |  |  |  |  |  |  |  | 8.52 to 8.70 | IC50 (786-O, MDR + RCC; 786-0, 96 h): < 10 nM; IC50 (BxPC3, PancCa; BXPC-3, 96 h): < 10 nM; IC50 (L540cy, HL): < 10 nM |
| COc1cccc2c1C(=O)c1c(O)c3c(c(O)c1C2=O)C[C@@](O)(C(=O)N(C)CCN(C)C(=O)OCc1ccc(NC(=O)[C@H](C)NC(=O)[C@@H](NC(=O)CCN2C(=O)C=CC2=O)C(C)C)cc1)C[C@@H]3O[C@H]1C[C@H]2[C@H](O[C@@H]3[C@@H](OC)OCCN32)[C@H](C)O1 [Compound 32, 4-((S)-2-((S)-2-(3-(2,5-dioxo-2,5-dihydro-1H-pyrrol-1-yl)propanamido)-3-methylbutanamido)propanamido)benzyl methyl(2-((2S,4S)-2,5,12-trihydroxy-7-methoxy-4-(((1S,3R,4aS,9S,9aR,10aS)-9-methoxy-1-methyloctahydro-1H-pyrano[4′,3′:4,5]oxazolo[2,3-c][1,4]oxazin-3-yl)oxy)-N-methyl-6,11-dioxo-1,2,3,4,6,11-hexahydrotetracene-2-carboxamido)ethyl)carbamate] | C (100 ng/mL≤IC50<1000 ng/mL) | B (10 ng/mL≤IC50<100 ng/mL) | C (10 ng/mL≤IC50<100 ng/mL) | B (10 ng/mL≤IC50<100 ng/mL) | B (1 ng/mL≤IC50<10 ng/mL) | 1 to 150 |  |  |  |  | IC50 (ng/mL) L428, MDR + HL (L428, MDR + HL): E (IC50≥500 ng/mL); IC50 (ng/mL) HL60, AML (HL60, AML): B (10 ng/mL≤IC50<100 ng/mL); activity of cOKT9 conjugates on multidrug resistant HL60/RV (HL60/RV, MDR + AML): active; IC50 (ng/mL) HL60/RV, MDR + AML (HL60/RV, MDR + AML): C (100 ng/mL≤IC50<1000 ng/mL); IC50 (ng/mL) Karpas299, ALCL (Karpas299, ALCL): B (1 ng/mL≤IC50<10 ng/mL); IC50 (ng/mL) Ramos, CD30 − NHL (Ramos, CD30 − NHL): D (100 ng/mL≤IC50<500 ng/mL) |
